# Measured values from article PMC3135787 (Antiviral research, 2011).
# Where two headings read alike, the source gives them in different places.
# Experiments:
# [1] = test system: ET replicon with NS5B P495L; assay: microbe, parasite or virus in culture; assay type: cell-based, HCV
# [2] = test system: myeloid progenitor cells (CFU-GM); assay: Human bone marrow stem cell toxicity, 14-day colony formation, myeloid; assay type: cell-based; conditions: 1 μg/mL (4 μM), 14 days
# [3] = test system: erythroid progenitor cells (CFU-E and BFU-E); assay: Human bone marrow stem cell toxicity, 14-day colony formation, erythroid; assay type: cell-based; conditions: 1 μg/mL (4 μM), 14 days
# [4] = test system: primary human hepatocytes; conditions: primary human hepatocytes from three donors
# [5] = test system: Human nucleoside diphosphate kinase (NDPK); assay: NDPK-mediated phosphorylation, coupled assay; assay type: biochemical; conditions: for kcat (apparent): 25 °C, PK contributed in the phosphorylation; for Km: read-out: Km (apparent), 25 °C, PK contributed in the phosphorylation
# [6] = 8-day MTS cytotoxicity assay, BxPC3; assay type: cell-based, human; conditions: human
# [7] = 8-day MTS cytotoxicity assay, HepG2; assay type: cell-based, human; conditions: human
# [8] = 8-day MTS cytotoxicity assay, Huh7; assay type: cell-based, human; conditions: human
# [9] = 8-day MTS cytotoxicity assay, CEM; assay type: cell-based, human; conditions: human
# HepG2 cells [10] = assay: Lactic acid production, HepG2; conditions: 7 days, normalised to rDNA
# [11] = test system: ET replicon with NS5B S96T/N142T; assay: microbe, parasite or virus in culture; assay type: cell-based, HCV; conditions: for EC90: read-out: EC90 Mutant replicon; for EC90 fold change: S96T/N142T mutant EC90 normalised to wild-type
# ribosomal DNA (rDNA) [12] = assay: Mitochondrial COXII DNA and ribosomal DNA by real time PCR, HepG2; assay type: cell-based, human; conditions: human
# [13] = test system: mitochondrial COXII DNA (mtDNA); assay: as above; assay type: cell-based, human; conditions: human
# [14] = test system: Clone A replicon with NS5B S282T; assay: microbe, parasite or virus in culture; assay type: cell-based, HCV; conditions: for EC90: read-out: EC90 Mutant replicon; for EC90 fold change: S282T mutant EC90 normalised to wild-type
# [15] = test system: Clone A wild type replicon; assay: Cross resistance: Clone A wild type replicon, RT-PCR; assay type: cell-based, HCV; conditions: read-out: EC90 WT replicon
# CEM cells [16] = assay: Lactic acid production, CEM; conditions: 7 days, normalised to rDNA
# ribosomal DNA (rDNA) [17] = assay: Mitochondrial COXII DNA and ribosomal DNA by real time PCR, CEM; assay type: cell-based, human; conditions: human
# [18] = test system: mitochondrial COXII DNA (mtDNA); assay: as above; assay type: cell-based, human; conditions: human
# [19] = test system: genotype 1b ET replicon, wild type; assay type: cell-based, HCV; conditions: read-out: EC90 WT replicon; wild-type ET replicon, luciferase-based assay
# [20] = biological target: recombinant NS5B genotype 3a (Hepatitis C virus genotype 3a, UniProt Q81258); assay: NS5B polymerase assay, genotype 3a; assay type: biochemical, HCV
# [21] = biological target: recombinant NS5B genotype 4a (Hepatitis C virus genotype 4a, UniProt O39929); assay: NS5B polymerase assay, genotype 4a; assay type: biochemical, HCV
# [22] = biological target: recombinant NS5B genotype 2a (JFH-1 strain) (Hepatitis C virus genotype 2a, UniProt Q99IB8); assay: NS5B polymerase assay, genotype 2a; assay type: biochemical, HCV
# [23] = test system: primary human hepatocytes; assay: Metabolism of [3H]-PSI-353661 in primary human hepatocytes; assay type: in vitro ADME; conditions: for time to maximum intracellular concentration: continuous exposure to 5 μM [3H]-PSI-353661
# [24] = test system: S282T genotype 1b NS5B (Con1 strain); assay: biochemical; parameters: species or system HCV; conditions: genotype 1b RdRp, 5 μM NTPs
# [25] = biological target: S282T genotype 1b NS5B (Con1 strain) (Hepatitis C virus genotype 1b, UniProt Q9WMX2, S2701T); assay: biochemical; parameters: species or system HCV
# [26] = biological target: recombinant HCV NS5B genotype 1b (Con1 strain), wild-type (Hepatitis C virus genotype 1b, UniProt Q9WMX2); assay: NS5B polymerase assay, genotype 1b wild-type; assay type: biochemical
# rabbit muscle PK = rabbit muscle PK (Oryctolagus cuniculus, UniProt P11974); assay: Phosphorylation by pyruvate kinase; assay type: biochemical; conditions: kinetic parameters unable to be determined (Km too high)
# [27] = biological target: 3-phosphoglycerate kinase (3-PGK) (Saccharomyces cerevisiae, UniProt P00560); assay: Phosphorylation by 3-phosphoglycerate kinase; assay type: biochemical, bakers yeast; conditions: kinetic parameters unable to be determined (Km too high)
# [28] = test system: ET replicon with NS5B M423T; assay type: cell-based, HCV
# [29] = biological target: L-alanine dehydrogenase (Ala-DH) (Bacillus subtilis, UniProt Q08352)
# HepG2 cells [30] = assay: Mitochondrial COXII DNA and ribosomal DNA by real time PCR, HepG2; assay type: cell-based, human; conditions: HepG2 cells, 0.5 μM (lowest concentration tested), 14 days
# CEM cells [31] = assay: Mitochondrial COXII DNA and ribosomal DNA by real time PCR, CEM; assay type: cell-based, human; conditions: CEM cells, 0.5 μM (lowest concentration tested), 14 days
# [32] = test system: primary human hepatocytes
# Sequence of rabbit muscle PK (P11974 whole entry): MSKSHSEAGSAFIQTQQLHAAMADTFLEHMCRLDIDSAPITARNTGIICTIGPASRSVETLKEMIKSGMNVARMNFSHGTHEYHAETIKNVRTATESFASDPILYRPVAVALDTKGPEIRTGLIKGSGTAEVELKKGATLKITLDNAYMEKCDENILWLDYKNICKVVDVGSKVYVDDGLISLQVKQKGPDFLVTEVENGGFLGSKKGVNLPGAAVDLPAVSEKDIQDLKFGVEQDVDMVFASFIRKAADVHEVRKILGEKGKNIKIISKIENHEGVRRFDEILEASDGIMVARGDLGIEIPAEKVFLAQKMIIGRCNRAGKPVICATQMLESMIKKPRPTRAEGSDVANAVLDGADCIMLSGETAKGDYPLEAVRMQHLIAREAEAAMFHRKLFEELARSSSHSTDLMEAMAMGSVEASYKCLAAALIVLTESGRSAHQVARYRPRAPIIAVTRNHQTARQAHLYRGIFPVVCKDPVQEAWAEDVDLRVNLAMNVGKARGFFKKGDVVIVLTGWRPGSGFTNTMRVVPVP
# Sequence of L-alanine dehydrogenase (Ala-DH) (Q08352 whole entry): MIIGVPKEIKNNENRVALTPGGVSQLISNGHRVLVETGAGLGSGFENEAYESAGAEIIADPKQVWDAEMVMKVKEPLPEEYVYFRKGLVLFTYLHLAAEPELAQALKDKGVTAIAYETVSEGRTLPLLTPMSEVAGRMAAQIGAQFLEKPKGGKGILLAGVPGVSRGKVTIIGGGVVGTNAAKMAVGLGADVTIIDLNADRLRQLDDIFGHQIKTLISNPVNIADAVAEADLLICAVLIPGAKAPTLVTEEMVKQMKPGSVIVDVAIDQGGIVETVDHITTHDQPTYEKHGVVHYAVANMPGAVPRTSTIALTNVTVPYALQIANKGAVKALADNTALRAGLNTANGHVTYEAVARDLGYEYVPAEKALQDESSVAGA
# Sequence of 3-phosphoglycerate kinase (3-PGK) (P00560 whole entry): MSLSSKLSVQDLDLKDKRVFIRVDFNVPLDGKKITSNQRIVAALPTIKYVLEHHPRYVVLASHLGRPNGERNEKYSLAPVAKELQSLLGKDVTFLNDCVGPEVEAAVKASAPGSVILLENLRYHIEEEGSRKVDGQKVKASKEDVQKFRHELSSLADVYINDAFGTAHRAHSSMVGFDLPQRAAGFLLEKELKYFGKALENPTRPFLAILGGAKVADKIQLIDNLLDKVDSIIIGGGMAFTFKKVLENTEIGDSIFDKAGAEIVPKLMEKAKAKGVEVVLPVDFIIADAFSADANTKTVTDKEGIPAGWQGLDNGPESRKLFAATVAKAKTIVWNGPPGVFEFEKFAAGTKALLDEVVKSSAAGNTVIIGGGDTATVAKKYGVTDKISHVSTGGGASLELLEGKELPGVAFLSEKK
structure (smiles),measurement,setting,value
"COc1ccc2c(c1)C1CC1(N)Cn1c-2c(C2CCCCC2)c2ccc(C(=O)NS(=O)(=O)N(C)C)cc21 (centres unmarked) [2-phenol indole, 5a-amino-12-cyclohexyl-N-(N,N-dimethylsulfamoyl)-3-methoxy-4b,5,5a,6-tetrahydrobenzo [3,4] cyclopropa [5,6] azepino [1,2-a] indole-9-carboxamide, reference compound]",EC90,"[1]; Hepatitis C virus, read-out: EC90 Mutant replicon",60800 ± 19900 nM
same,EC90 fold change,[1]; P495L mutant EC90 normalised to wild-type,51.9
"O=c1[nH]cc(F)c(=O)[nH]1 [5-fluorouracil, 5-Fluorouracil, reference compound]",inhibition of CFU-GM colony formation,[2],completely inhibited
same,inhibition of BFU-E colony formation,[3],completely inhibited
"O=[N+]([O-])c1ccc(OP(=O)(O)Oc2ccc([N+](=O)[O-])cc2)cc1 [BNPP, bis(4-nitrophenyl)phosphate]",effect on formation of the triphosphate PSI-352666 from PSI-353661,[4],inhibited the formation of PSI-352666 in hepatocytes from three different donors in a dose-dependent manner
"Nc1nc2c(ncn2[C@@H]2O[C@H](COP(=O)(O)OP(=O)(O)O)[C@@H](O)[C@H]2O)c(=O)[nH]1 [GDP, guanosine-5′-diphosphate, reference compound]",kcat (apparent),[5],38.8 ± 5.0 s⁻¹
same,Km,[5],56.2 ± 4.9 µM
"Nc1ccn([C@@H]2O[C@H](CO)[C@@H](O)C2(F)F)c(=O)n1 [Gemcitabine, 2′-deoxy-2′-difluorocytidine]",CC50 at 8 days,[6]; BxPC3 cells,< 1000 nM
same,CC50 at 8 days,[7]; HepG2 cells,< 1000 nM
same,CC50 at 8 days,[8]; Huh7 cells,< 1000 nM
same,CC50 at 8 days,[9]; CEM cells,< 1000 nM
COc1nc(N)nc2c1ncn2[C@@H]1O[C@H](COP(=O)(N[C@@H](C)C(=O)OCC(C)(C)C)Oc2cccc3ccccc23)[C@@H](O)[C@@]1(C)O (some centres unmarked) [INX-08189],Lactic acid (Fold change from untreated cells),HepG2 cells [10]; 0.1 μM,1.1 ± 0.21
same,Lactic acid (Fold change from untreated cells),HepG2 cells [10]; 1.0 μM,3.1 ± 0.61
same,Lactic acid (Fold change from untreated cells),HepG2 cells [10]; 10 μM,Toxic
same,Lactic acid (Fold change from untreated cells),HepG2 cells [10]; 50 μM,Toxic.
same,EC90,[11]; Hepatitis C virus,5.9 ± 2.7 nM
same,EC90 fold change,[11],1.1
same,CC50 at 8 days,[6],2810 ± 1520 nM
same,CC90 at 14 days,ribosomal DNA (rDNA) [12],750 ± 270 nM
same,CC90 at 14 days,[13],970 ± 620 nM
same,CC50 at 8 days,[7],2230 ± 100 nM
same,CC50 at 8 days,[8],320 ± 30 nM
same,EC90,[14]; Hepatitis C virus,110 ± 4 nM
same,EC90 fold change,[14],6.1
same,EC90,[15]; Hepatitis C virus,18 ± 1 nM
same,Lactic acid (Fold change from untreated cells),CEM cells [16]; 0.1 μM,1.4 ± 0.35
same,Lactic acid (Fold change from untreated cells),CEM cells [16]; 1.0 μM,1.4 ± 0.69
same,Lactic acid (Fold change from untreated cells),CEM cells [16]; 10 μM,1.5 ± 0.50
same,Lactic acid (Fold change from untreated cells),CEM cells [16]; 50 μM,Toxic.
same,CC50 at 8 days,[9],15000 ± 2000 nM
same,CC90 at 14 days,ribosomal DNA (rDNA) [17],16300 ± 4100 nM
same,CC90 at 14 days,[18],16900 ± 1700 nM
CC(C)OC(=O)[C@H](C)NP(=O)(OC[C@H]1O[C@@H](n2ccc(=O)[nH]c2=O)[C@](C)(F)[C@@H]1O)Oc1ccccc1 (some centres unmarked) [PSI-7851],EC90 fold change,[11],0.9
same,EC90,"[11]; S96T/N142T, luciferase-based assay",390 ± 190 nM
same,EC90 fold change,[14],16.7
same,EC90,"[14]; S282T, RT-PCR assay",7360 ± 1020 nM
same,EC90,[19],430 ± 230 nM
same,EC90,"[15]; Clone A wild type replicon, RT-PCR assay",440 ± 210 nM
"C[C@@]1(F)[C@H](O)[C@@H](COP(=O)(O)OP(=O)(O)OP(=O)(O)O)O[C@H]1n1cnc2c(=O)[nH]c(N)nc21 [PSI-352666, 2′-deoxy-2′-α-fluoro-2′-β-C-methylguanosine-5′-triphosphate]",IC50,[20],1300 ± 500 nM
same,IC50,[21],4200 ± 800 nM
same,IC50,[22],4700 ± 600 nM
same,intracellular concentration,[23]; after 4 hours of exposure to PSI-353661,> 50 µM
same,time to maximum intracellular concentration,[23],about 4 hours
same,"fold difference in IC50, S282T mutant vs wild-type",[24],~2 fold
same,IC50,[25],9200 ± 1400 nM
same,IC50,"[26]; IC50, genotype 1b NS5B, 1 μM NTPs",1000 ± 200 nM
same,IC50,"[26]; IC50, wild-type genotype 1b RdRp, 5 μM NTPs",4000 ± 1100 nM
"C[C@@]1(F)[C@H](O)[C@@H](COP(=O)(O)OP(=O)(O)O)O[C@H]1n1cnc2c(=O)[nH]c(N)nc21 [PSI-353579, 2′-deoxy-2′-α-fluoro-2′-β-C –methylguanosine-5′-diphosphate]",phosphorylation by PK,rabbit muscle PK,Phosphorylation of PSI-353579 was also observed
same,kcat (apparent),[5],44.6 ± 4.9 s⁻¹
same,Km,[5],66.3 ± 2.2 µM
same,time to maximum intracellular concentration,[23],1 to 2 h
same,phosphorylation by 3-PGK,[27],Phosphorylation of PSI-353579 was also observed
"CC(C)N(c1cc(-c2ccccc2)sc1C(=O)O)C(=O)[C@H]1CC[C@H](C)CC1 [Thiophene, 3-((1r,4r)-N-isopropyl-4-methylcyclohexanecarboxamido)-5-phenylthiophene-2-carboxylic acid, reference compound]",EC90 fold change,[28]; M423T mutant EC90 normalised to wild-type,19.1
same,EC90,"[28]; read-out: EC90 Mutant replicon, M423T, luciferase-based assay",69500 ± 9240 nM
same,EC90,[19],3650 ± 210 nM
"C[C@H](N)C(=O)O [alanine, L-alanine]",Vmax,[29],0.0206 ± 0.0005 ΔA340/min
"Nc1ccn([C@H]2CC[C@@H](CO)O2)c(=O)n1 [ddC, 2′,3′-dideoxycytidine]",Lactic acid (Fold change from untreated cells),HepG2 cells [10]; 0.1 μM,1.6 ± 0.68
same,Lactic acid (Fold change from untreated cells),HepG2 cells [10]; 1.0 μM,1.4 ± 0.12
same,Lactic acid (Fold change from untreated cells),HepG2 cells [10]; 10 μM,3.9 ± 0.93
same,Lactic acid (Fold change from untreated cells),HepG2 cells [10]; 50 μM,Toxic.
same,CC90 at 14 days,ribosomal DNA (rDNA) [12]; HepG2 cells,12900 ± 9100 nM
same,CC90 at 14 days,[13],< 500 nM
same,reduction of mitochondrial DNA levels,HepG2 cells [30],more than one log10
same,Lactic acid (Fold change from untreated cells),CEM cells [16]; 0.1 μM,0.9 ± 0.3
same,Lactic acid (Fold change from untreated cells),CEM cells [16]; 1.0 μM,2.2 ± 0.81
same,Lactic acid (Fold change from untreated cells),CEM cells [16]; 10 μM,4.2 ±1.0
same,Lactic acid (Fold change from untreated cells),CEM cells [16]; 50 μM,Toxic
same,reduction of mitochondrial DNA levels,CEM cells [31],more than one log10
same,CC90 at 14 days,ribosomal DNA (rDNA) [17]; CEM cells,22900 ± 11900 nM
same,CC90 at 14 days,[18],< 500 nM
CCC[C@H](NC(=O)[C@@H]1[C@H]2CCC[C@H]2CN1C(=O)[C@@H](NC(=O)[C@@H](NC(=O)c1cnccn1)C1CCCCC1)C(C)(C)C)C(=O)C(=O)NC1CC1 [telaprevir],effect on formation of the triphosphate PSI-352666 from PSI-353661,[32],not inhibited by telaprevir in hepatocytes from two of the three donors
